Assay: Steady-state plasma pharmacokinetics after oral dosing for 5 days
Format: in vivo, BALB/c nu/nu mice
Description: Pharmacokinetic studies were performed in 6–8-week-old female BALB/c nu/nu mice (Charles River, Sulzfeld, Germany). […] Parent compounds and metabolites M-2 and M-5 were analyzed in plasma samples using validated bioanalytical liquid chromatography-tandem mass spectrometry (LC-MS/MS) methods according to an experimental protocol described earlier. PK parameters, namely the AUC(0–24)ss and Cmax, were calculated from plasma concentrations using a non-compartmental analysis.

[1] = after oral regorafenib 10 mg/kg/day for 5 days, total = molar sum of regorafenib, M-2, M-5

| SMILES | AUC(0–24)ss (percent of total) [1] | AUC(0–24)ss (percent of total) (after oral sorafenib tosylate 30 mg/kg/day for 5 days, total = molar sum of sorafenib and M-2) |
| --- | --- | --- |
| NC(=O)c1cc(Oc2ccc(NC(=O)Nc3ccc(Cl)c(C(F)(F)F)c3)c(F)c2)cc[n+]1[O-] [M-5] | 1% of total |  |
| CNC(=O)c1cc(Oc2ccc(NC(=O)Nc3ccc(Cl)c(C(F)(F)F)c3)c(F)c2)cc[n+]1[O-] [M-2] | 9% of total | 1% of total |
